Measured values published in patent publication US20220281794A1, “METHOD OF THE ISOLATING CHLOROSESAMONE OR CHLOROSESAMONE-CONTAINING FRACTION FROM ROOTS OF GENUS SESAMUM, AND APPLICATION OF THE FRACTION THEREOF” (BRILLIANT BIOMEDICAL CORP., priority 2019, published 2022).

Assays:
Type in all cases: cell-based
[1] = test system: HepG2 human liver cancer cell; test: cell viability assay (MTT assay), HepG2; settings: HepG2 cells, 24 hours treatment stated for D2 fraction
Procedure: (§1) In the first embodiment, MDA-MB-231, a human breast cancer cell and 4T1, a mouse breast cancer cell, Huh-7 and HepG2, a human liver cancer cell and BNL-1-MEA, a mouse liver cancer cell, HL60, a human blood cancer cell and WEHI-3, a mouse blood cancer cell , and
(§2) A549, a human lung cancer cell and LLC1, a mouse lung cancer cell are used for the experiments. A 96-well plate is used for cell culture. In the test, cells are treated with 0, 25, 50, 100, 200, 400 μg/mL of D2 fraction for 24 hours, and then subjected to cell viability assay (or MTT assay). In cell viability assay, cells are washed with 1X PBS once and treated with 0.5 mg/mL of MTT (3-(4,5-Dimethylthiazol-2-yl)-2,5-diphenyltetrazolium bromide). After incubation at 37 degrees Centigrade for 1-2 hours MTT is removed and cells are washed with 1X PBS once, followed by dimethyl sulfoxide (DMSO) to dissolve […]. Finally optical density (OD) of 570 nm is detected and medium only is used as a 100% cell viability.

[2] = test system: 4T1 mouse breast cancer cell and HepG2 human liver cancer cell; test: cell viability assay, summary over 4T1 and HepG2; settings: range over 4T1 and HepG2 cells
Procedure: as §1, §2

[3] = test system: 4T1 mouse breast cancer cell; test: cell viability assay (MTT assay), 4T1; settings: 4T1 cells, 24 hours treatment stated for D2 fraction
Procedure: as §1, §2

For `CC(C)=CCC1=C(Cl)C(=O)c2c(O)ccc(O)c2C1=O` [chlorosesamone], the “50% inhibition concentration in HepG2 human liver cancer cell” value [1] was 0.8 µg/mL, the “50% inhibition concentration of chlorosesamone (range)” value [2] was 0.8 to 1.3 µg/mL and the “50% inhibition concentration in 4T1 mouse breast cancer cell” value [3] was 1.3 µg/mL.
